Measured values taken from ChEMBL document CHEMBL1201862, “PubChem BioAssay data set” (2004).
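Grown in 96-well plates, cells were treated for 48 hours with each compound at five concentrations. Insufficient inhibition: endpoint recorded as highest concentration tested. GI50 is the concentration that inhibits growth by half.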 Active and inactive are the calls of the source. Cut-off read from the data, not from the text of the source: active = GI50 up to about 1.1 µM and inactive = higher.

Experiments:
Assay in all cases: NCI-60 cell line screen, 48 h
[1] = system: MCF7
[2] = system: SW-620
[3] = system: MOLT-4
[4] = system: SK-MEL-28
[5] = system: T47D
[6] = system: EKVX
[7] = system: BT-549
[8] = system: HL-60
[9] = system: MDA-N
[10] = system: M14
[11] = system: SR
[12] = system: MDA-MB-435
[13] = system: NCI-H460
[14] = system: Hs-578T
[15] = system: HT-29
[16] = system: SK-MEL-5
[17] = system: HOP-92
[18] = system: SK-MEL-2
[19] = system: NCI-H226

Measured: GI50

CC(C)/C(Cl)=N/OC(=O)Nc1ccc(OC(F)(F)F)cc1
inactive: [1] 13.5 µM | [2] 1.77 µM | [3] 2.86 µM | [4] 13.3 µM | [5] 8.55 µM | [6] 8.17 µM | [7] 16.3 µM | [8] 1.97 µM | [9] 13.4 µM | [10] 3.78 µM | [11] 1.94 µM | [12] 12.6 µM | [13] 16.6 µM | [14] 15.8 µM | [15] 18.6 µM | [16] 7.14 µM | [17] 1.68 µM | [18] 14.2 µM | [19] 11.1 µM

CC(C)OCC1CC(CC(=O)Nc2nncs2)C(=O)O1 (centres undefined)
inactive: [1] > 100 µM | [2] > 100 µM | [3] > 100 µM | [4] > 100 µM | [5] > 100 µM | [6] > 100 µM | [7] > 100 µM | [9] > 100 µM | [10] > 100 µM | [11] > 100 µM | [12] > 100 µM | [13] > 100 µM | [14] > 100 µM | [15] > 100 µM | [16] > 100 µM | [17] > 100 µM | [18] > 100 µM | [19] > 100 µM

CCOc1cc(C2SCC(=O)N2c2nc3cc4sc(N5C(=O)CSC5c5ccc(O)c(OCC)c5)nc4cc3s2)ccc1O (centres undefined)
inactive: [1] 9.86 µM | [2] 27.1 µM | [3] 4.61 µM | [4] > 100 µM | [5] 40.2 µM | [6] 67.3 µM | [7] 9.59 µM | [8] 61.2 µM | [9] 30.5 µM | [10] > 100 µM | [11] 5.85 µM | [12] 29.9 µM | [13] 2.37 µM | [14] > 47.1 µM | [15] 18.4 µM | [16] 59.2 µM | [17] 27.7 µM | [18] > 100 µM | [19] 23.6 µM

CC1(CCC2C=CCC2)CCCNC1=S (centres undefined)
inactive: [1] > 10 µM | [2] > 10 µM | [3] > 10 µM | [4] > 10 µM | [5] > 10 µM | [6] > 10 µM | [7] > 10 µM | [8] > 10 µM | [9] > 10 µM | [10] > 10 µM | [11] > 10 µM | [12] > 10 µM | [13] > 10 µM | [14] > 10 µM | [15] > 10 µM | [16] > 10 µM | [17] > 10 µM | [18] > 10 µM | [19] > 10 µM

CC(C)=CCc1cc2c(cc1O)OC[C@H]1c3cc4c(cc3O[C@@H]21)OCO4
inactive: [1] 25.3 µM | [2] 36.5 µM | [3] 22.1 µM | [4] 83.4 µM | [5] 34.4 µM | [6] 22.2 µM | [7] 23.4 µM | [8] 23.8 µM | [9] 20.6 µM | [10] 62.1 µM | [11] 33.6 µM | [12] 32.6 µM | [13] 21.2 µM | [14] 18.2 µM | [15] > 100 µM | [16] 20.3 µM | [17] 23 µM | [19] 23.8 µM

Cn1c(NNc2ccccc2)cc(=O)[nH]c1=O
inactive: [1] 33.8 µM | [2] 62.1 µM | [3] 39.3 µM | [4] 37.8 µM | [5] 30.9 µM | [6] > 100 µM | [7] > 100 µM | [8] 32.7 µM | [9] 20.5 µM | [10] 33.9 µM | [11] 22.6 µM | [12] 20.9 µM | [13] 51.9 µM | [14] > 100 µM | [15] 86.9 µM | [16] 25.6 µM | [17] 63.8 µM | [18] 3.63 µM | [19] > 100 µM

O=C1NC(=O)C(c2c[nH]c3cc(Br)ccc23)=C1c1cn(C(c2ccccc2)(c2ccccc2)c2ccccc2)cn1
inactive: [1] 10.8 µM | [2] 15.7 µM | [3] 4.41 µM | [4] 27.2 µM | [5] 15.2 µM | [6] 7.82 µM | [7] 16 µM | [8] 13.7 µM | [9] 10.1 µM | [10] 13.2 µM | [11] 6.64 µM | [12] 6.24 µM | [13] 11.1 µM | [14] 22.4 µM | [15] 9.48 µM | [16] 10.5 µM | [17] 13.9 µM | [18] 11.2 µM | [19] 3.38 µM

CSC(=N/C=C/c1ccccc1)SC
inactive: [1] > 100 µM | [2] > 100 µM | [3] > 100 µM | [4] > 100 µM | [5] > 100 µM | [6] > 100 µM | [7] > 100 µM | [8] 49.9 µM | [9] 55.6 µM | [10] > 100 µM | [11] > 100 µM | [12] 76.7 µM | [13] > 100 µM | [14] 68.1 µM | [15] > 100 µM | [17] > 100 µM | [18] > 100 µM | [19] > 100 µM

CCCC1NC(=O)C(CC(C)C)NC(=O)c2cccc(n2)C(=O)NC(CC(C)C)C(=O)NC(CCC)C(=O)NC(C(=O)OC)CCCCNC1=O (centres undefined)
inactive: [1] 25.9 µM | [2] 34.8 µM | [3] 18 µM | [4] 25.6 µM | [5] 55 µM | [6] 20.3 µM | [7] 26.4 µM | [9] 36.9 µM | [10] 91 µM | [11] 29 µM | [12] 35.4 µM | [13] > 100 µM | [14] 71.1 µM | [15] 30.6 µM | [16] > 100 µM | [17] 14.6 µM | [18] 55 µM | [19] 25.6 µM

COc1cc(/C=C2/SC(c3ccccc3)N(c3ccc(NC(C)=O)cc3)C2=O)cc(OC)c1OC (centres undefined)
inactive: [1] 76.9 µM | [2] > 100 µM | [3] 31.3 µM | [4] > 100 µM | [5] 84.3 µM | [6] > 100 µM | [7] > 100 µM | [8] 66.4 µM | [9] 82.6 µM | [10] > 100 µM | [11] 30.8 µM | [12] 66.4 µM | [13] > 100 µM | [14] 35.5 µM | [15] > 100 µM | [16] 34.4 µM | [17] 37.3 µM | [18] > 100 µM | [19] > 100 µM

NS(=O)(=O)c1ccc(/N=N/c2cc3ccccc3c(C(=O)O)c2O)cc1
inactive: [1] 2.68 µM | [2] > 41.8 µM | [3] > 57 µM | [4] > 60.1 µM | [5] > 54.1 µM | [6] > 100 µM | [7] 99.1 µM | [8] > 100 µM | [9] > 100 µM | [10] 97.1 µM | [11] 2.31 µM | [12] > 55.8 µM | [13] 10.5 µM | [14] > 67.3 µM | [15] > 55.7 µM | [16] > 59.2 µM | [17] 99.1 µM | [18] > 45.1 µM | [19] > 100 µM

Cc1ccc2occ/c(=N\Nc3ccccc3)c2c1
inactive: [1] 40.2 µM | [2] > 100 µM | [4] 62.2 µM | [5] 1.33 µM | [6] 18.6 µM | [7] > 100 µM | [8] > 100 µM | [9] 65.9 µM | [10] 43 µM | [11] 37.8 µM | [12] 17.9 µM | [13] 56.9 µM | [14] 65.3 µM | [15] 23.9 µM | [16] 41.5 µM | [17] 19.5 µM | [18] > 100 µM | [19] 29.9 µM

Cc1cc(C)c2c(=O)n(CN3CC4Nc5ccccc5C4C3)sc2n1 (centres undefined)
inactive: [1] 32.1 µM | [2] 22.8 µM | [3] 29.6 µM | [4] 22.1 µM | [5] 81.8 µM | [6] 26.9 µM | [7] 31.2 µM | [8] 25.6 µM | [9] 19.5 µM | [10] 23.8 µM | [11] 23.6 µM | [12] 19.5 µM | [13] 20.9 µM | [14] 16.6 µM | [15] 21.3 µM | [16] 30.2 µM | [17] 38.5 µM | [18] 22.5 µM | [19] 20.8 µM

CCOC(=O)n1ccc2c(C(=O)OC)c(C(=O)OC)cc(/C(=C/C(=O)OC)C(=O)OC)c21
inactive: [1] > 100 µM | [2] > 100 µM | [3] 32.1 µM | [4] > 100 µM | [5] 74.5 µM | [6] > 100 µM | [7] 60.7 µM | [8] > 100 µM | [9] 83.6 µM | [10] > 100 µM | [11] 79.8 µM | [12] > 100 µM | [13] > 100 µM | [14] > 100 µM | [15] > 100 µM | [16] > 100 µM | [17] 34.3 µM | [18] > 100 µM | [19] > 100 µM

O=C1Oc2cc(O)cc(/C=C/c3ccc(O)cc3)c2[C@@]12c1c(O)cc(O)cc1OC2c1cccc(O)c1 (some centres undefined)
inactive: [1] 39.1 µM | [3] 42.8 µM | [4] 37.3 µM | [5] 44.8 µM | [6] 49.3 µM | [7] 49.8 µM | [8] 28.9 µM | [9] 26.1 µM | [10] 28.6 µM | [11] 42.4 µM | [12] 21.4 µM | [13] 20.9 µM | [14] 20.5 µM | [15] 29.2 µM | [16] 12.5 µM | [17] 31.2 µM | [18] 24.2 µM | [19] 11.1 µM
